Measurements as given in ChEMBL document CHEMBL3886578, “Pharmaceutical composition for treating diabetes” (2016).

Biological target: T1, Glycogen [starch] synthase, muscle (Homo sapiens, UniProt P13807)
T1 sequence (P13807 whole entry): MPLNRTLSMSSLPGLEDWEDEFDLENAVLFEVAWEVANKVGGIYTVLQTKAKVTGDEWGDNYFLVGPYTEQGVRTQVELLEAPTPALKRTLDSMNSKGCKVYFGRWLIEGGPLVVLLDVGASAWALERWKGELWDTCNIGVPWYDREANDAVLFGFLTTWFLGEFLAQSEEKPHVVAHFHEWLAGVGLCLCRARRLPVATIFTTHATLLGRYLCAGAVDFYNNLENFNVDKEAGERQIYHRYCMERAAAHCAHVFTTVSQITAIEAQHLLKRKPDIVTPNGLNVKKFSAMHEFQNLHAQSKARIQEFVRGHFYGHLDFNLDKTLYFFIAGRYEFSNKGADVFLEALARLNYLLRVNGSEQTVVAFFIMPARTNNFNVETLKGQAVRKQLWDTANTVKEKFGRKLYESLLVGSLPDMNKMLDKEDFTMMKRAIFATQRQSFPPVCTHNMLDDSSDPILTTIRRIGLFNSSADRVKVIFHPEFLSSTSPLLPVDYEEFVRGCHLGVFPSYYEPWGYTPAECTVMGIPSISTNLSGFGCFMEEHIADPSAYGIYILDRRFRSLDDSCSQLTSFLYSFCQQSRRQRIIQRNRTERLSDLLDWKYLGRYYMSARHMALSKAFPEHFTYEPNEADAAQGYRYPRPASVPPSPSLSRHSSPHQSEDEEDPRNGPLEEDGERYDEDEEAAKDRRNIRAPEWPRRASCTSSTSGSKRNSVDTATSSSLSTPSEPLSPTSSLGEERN
Experiment: Glycogen Synthase Activity Assay: To a polystyrene 96-well plate, a solution containing 30 mM glycylglycine (pH 7.3), 40 mM KCl, 20 mM MgCl2, 9.2% DMSO containing one of the test compounds at various concentrations, and 10 mM glucose-6-phosphate (Sigma-Aldrich Corporation, G7879) was added by 12 uL/well. Next, a substrate solution containing 30 mM glycylglycine (pH 7.3), 4.3 mg/mL of glycogen (Sigma-Aldrich Corporation, G8876), 21.6 mM UDP-glucose (Sigma-Aldrich Corporation, U4625), 21.6 mM phosphoenolpyruvic acid (Sigma-Aldrich Corporation, P0564), and 4.05 mM NADH (Sigma-Aldrich Corporation, N8129) was added by 18 uL/well. Further, an enzyme solution containing 50 mM Tris-HCl (pH 8.0), 27 mM DTT (Nacalai Tesque, Inc., 14128-04), 0.2 mg/mL of bovine serum albumin, 0.17 mg/mL of the glycogen synthase, 1.5 uL of a pyruvate kinase/lactate dehydrogenase solution (Sigma-Aldrich Corporation, P0294) was added by 18 uL/well to prepare a reaction solution. After the reaction solution was incubated (at 30° C. for 25 minutes for Examples 1 to 10, at 37° C. for 20 minutes for Examples 11 to 75), the absorbance at 340 nm was measured using Benchmark Plus (Bio-Rad Laboratories, Inc.).

SMILES	EC50 [nM]
O=C(O)[C@@H]1CCCN1C(=O)c1cccc(COc2ccc(-c3cc(F)cc4c3OCC=C4)cc2)c1	780
O=C(O)[C@@H]1CCCN1C(=O)c1cccc(COc2ccc(-c3cc(F)c(F)c4c3OCC=C4)cc2)c1	100
